From ChEMBL document CHEMBL4406798, “A novel finding of nalbuphine-6-glucuronide, an active opiate metabolite, possessing potent antinociceptive effects: Synthesis and biological evaluation” (2019) come the findings set out here.

Assay [1] concerns Rattus norvegicus. Put plainly: Antinociceptive activity in Sprague-Dawley rat model of thermal-induced nociception assessed as maximum possible analgesia at 1 mg/kg administered as intra-cisternal injection measured over 2.5 hrs by cold-ethanol tail-flick test relative to control. It counts as functional.
For assay [2], the system named is Rattus norvegicus. Description: Antinociceptive activity in Sprague-Dawley rat model of thermal-induced nociception assessed as reduction in tail-flick response by measuring AUC (0 to t) of tail flick test at 50 mg/kg, ip measured over 2.5 hrs by cold-ethanol tail-flick test. It is filed as functional, organism-based. The arrangement: time < 2.5 hr, dose 50 mg/kg. On the technique in general: Hot-plate and tail-flick tests time the reaction to a heat stimulus.

In assay [3] the test system is Rattus norvegicus. Put plainly: Antinociceptive activity in Sprague-Dawley rat model of paw mechanical allodynia assessed as maximum possible analgesia at 1 mg/kg administered as intra-cisternal injection by Randall-Selitto test relative to control. It is filed as functional.
In assay [4] the test system is Rattus norvegicus. Put plainly: Antinociceptive activity in Sprague-Dawley rat model of thermal-induced nociception assessed as duration above 50% maximum possible analgesia at 1 mg/kg administered as intra-cisternal injection measured over 2.5 hrs by cold-ethanol tail-flick test. It counts as functional.
The test system of assay [5] is Rattus norvegicus. Description: Antinociceptive activity in Sprague-Dawley rat model of thermal-induced nociception assessed as maximum possible analgesia at 50 mg/kg, ip measured over 2.5 hrs by cold-ethanol tail-flick test relative to control. It counts as functional.
In assay [6] the test system is Rattus norvegicus. Description: Antinociceptive activity in Sprague-Dawley rat model of thermal-induced nociception assessed as reduction in tail-flick response by measuring AUC (0 to t) of tail flick test at 1 mg/kg administered as intra-cisternal injection measured over 2.5 hrs by cold-ethanol tail-flick test. The arrangement: dose 1 mg/kg, time < 2.5 hr. It is filed as functional, organism-based.

The test system of assay [7] is Rattus norvegicus. Put plainly: Antinociceptive activity in Sprague-Dawley rat model of paw mechanical allodynia assessed as reduction in paw pressure by measuring AUC (0 to t) of paw pressure test at 1 mg/kg administered as intra-cisternal injection by Randall-Selitto test. It is filed as functional, organism-based.
For assay [8], the system named is Rattus norvegicus. Put plainly: Antinociceptive activity in Sprague-Dawley rat model of paw mechanical allodynia assessed as reduction in paw pressure by measuring AUC (0 to t) of paw pressure test at 50 mg/kg, ip by Randall-Selitto test. It counts as functional, organism-based.
In assay [9] the test system is Rattus norvegicus. Description: Antinociceptive activity in Sprague-Dawley rat model of paw mechanical allodynia assessed as maximum possible analgesia at 50 mg/kg, ip by Randall-Selitto test relative to control. It is filed as functional.
The species entered for assay [10] is Rattus norvegicus. Description: Ratio of AUC for test compound to AUC for nalbuphine for antinociceptive activity in Sprague-Dawley rat model by cold-ethanol tail-flick test. It counts as functional.
The species named for assay [11] is Rattus norvegicus. Put plainly: Ratio of AUC for test compound to AUC for nalbuphine for antinociceptive activity in Sprague-Dawley rat model by Randall-Selitto test. It is filed as functional.
The test system of assay [12] is Rattus norvegicus. Put plainly: Antinociceptive activity in Sprague-Dawley rat model of paw mechanical allodynia assessed as duration above 50% maximum possible analgesia at 1 mg/kg administered as intra-cisternal injection by Randall-Selitto test. It is filed as functional.
The subject of assay [13] is Rattus norvegicus. Description: Antinociceptive activity in Sprague-Dawley rat model of paw mechanical allodynia assessed as duration above 50% maximum possible analgesia at 50 mg/kg, ip by Randall-Selitto test. It counts as functional.
Assay [14] relates to Rattus norvegicus. Description: Antinociceptive activity in Sprague-Dawley rat model of thermal-induced nociception assessed as duration above 50% maximum possible analgesia at 50 mg/kg, ip measured over 2.5 hrs by cold-ethanol tail-flick test. It is filed as functional.

For the molecule `O=C(O)[C@H]1O[C@@H](Oc2ccc3c4c2O[C@H]2[C@@H](O)CC[C@@]5(O)[C@@H](C3)N(CC3CCC3)CC[C@]425)[C@H](O)[C@@H](O)[C@@H]1O`, the Activity with Rattus norvegicus [1] turned out to be 22.3%; in the assay on Rattus norvegicus [3], 7.3%; in the assay on Rattus norvegicus [5] it was 19.3%; with Rattus norvegicus [9], 17.7%. Besides, the AUC in the assay with Rattus norvegicus [2] turned out to be 5.8 hr.sec; with Rattus norvegicus [6], 5.4 hr.sec; with Rattus norvegicus [7], 23.5 g·h; in the assay on Rattus norvegicus [8] it was 73.4 g·h. Besides, the Time in the assay with Rattus norvegicus [4] amounted to 1.36 h.

Regarding `O=C(O)[C@H]1O[C@@H](O[C@H]2CC[C@@]3(O)[C@H]4Cc5ccc(O)c6c5[C@@]3(CCN4CC3CCC3)[C@H]2O6)[C@H](O)[C@@H](O)[C@@H]1O`, the Activity in the assay with Rattus norvegicus [1] is 96.5%; with Rattus norvegicus [3] it was 95.1%; in the assay on Rattus norvegicus [5] it was 22.7%; with Rattus norvegicus [9] it was 29.6%. For the same molecule, the Ratio came out at 3.5 in the assay filed under Rattus norvegicus [10] and 2.8 in the assay listed under Rattus norvegicus [11]. The AUC in the assay with Rattus norvegicus [2] came out at 5.4 hr.sec; in the assay with Rattus norvegicus [6], 40.3 hr.sec; in the assay with Rattus norvegicus [7] it was 510 g·h; in the assay with Rattus norvegicus [8] it was 158 g·h. The Time with Rattus norvegicus [12] amounted to 91 h.

As for `Oc1ccc2c3c1O[C@H]1[C@@H](O)CC[C@@]4(O)[C@@H](C2)N(CC2CCC2)CC[C@]314` [NALBUPHINE], the Activity was 38.4% with Rattus norvegicus [1], 48% in the assay with Rattus norvegicus [3], 43.6% in the assay with Rattus norvegicus [5] and 37.9% in the assay with Rattus norvegicus [9]. Besides, the AUC with Rattus norvegicus [2] amounted to 16.9 hr.sec; in the assay on Rattus norvegicus [6] it was 11.3 hr.sec; in the assay on Rattus norvegicus [7], 176 g·h; with Rattus norvegicus [8] it was 169 g·h. Besides, the Time in the assay with Rattus norvegicus [13] was found to be 0.1 h; with Rattus norvegicus [14], 0.15 h; in the assay with Rattus norvegicus [4] it was 0.07 h; with Rattus norvegicus [12], 0.13 h.
